The nature of this data set: in vitro. The following applies: human, hela cells, % viability.
On to `COc1ccc2ccccc2c1CN1CCN(C/C=C/c2ccccc2)CC1` [CBK261899], for which the viability at 28.5 h, 10 µM worked out at 108%.
Take `CCn1c2ccccc2c2cc(CN(C)Cc3ccccc3)ccc21` [CBK261901]: the viability at 28.5 h, 10 µM stood at 94.1%.
For `CN1CCC(N(C)C/C(Cl)=C/c2ccccc2)CC1` [CBK261903], the viability at 28.5 h, 10 µM came to 92.1%.
For `COc1cc(CN2CCN(c3ccccn3)CC2)ccc1OCc1ccccc1` [CBK261906] the value was 88.8%; for `C(=C\c1ccccc1)/CN1CCN(c2ncccn2)CC1` [CBK261909], 92.3%.
`CCN1CCN(Cc2ccc(OC)c(OCc3ccccc3)c2)CC1` [CBK261910]: the viability at 28.5 h, 10 µM is 89.4%.
`COc1cc(CN2CCC(C)CC2)c([N+](=O)[O-])cc1OC` [CBK261911]: the viability at 28.5 h, 10 µM is 90%.
Take `COc1ccc(CN(C)CCN(C)C)c(O)c1` [CBK261915]: the viability at 28.5 h, 10 µM came out at 114%.
For `CN(C1CCCCC1)C1CCN(CCc2ccccc2)CC1` [CBK261918] the value was 97.5%; for `OCCN(CCO)Cc1ccc(Cl)c(Cl)c1` [CBK261919], 88.1%; for `COc1ccc(CCC(C)N2CCN(c3ccc(F)cc3)CC2)cc1` (stereo not shown) [CBK261922], 103%.
`CN(C)CC(C)(C)CNC1CCN(C)CC1` [CBK261926]: the viability at 28.5 h, 10 µM was determined as 95.2%.
In the case of `CN(C)CCN(Cc1ccccc1)Cc1ccc(C(F)(F)F)cc1` [CBK261927], the viability at 28.5 h, 10 µM came to 120%.
Consider `CN(C)CCN(Cc1ccccc1)Cc1ccc([N+](=O)[O-])cc1` [CBK261929], for which the viability at 28.5 h, 10 µM stood at 87.8%.
In the case of `CSc1ccc(CN(CCO)CCO)cc1` [CBK261931] it was 98.6%.
For `CCCN1CCC(NC(C)CCCC(C)(C)O)CC1` (stereo not shown) [CBK261932], the viability at 28.5 h, 10 µM was 99.3%.
For `CC(CCc1ccccc1)N(C)CCN(C)C` (stereo not shown) [CBK261933] the value was 80.5%; for `CCCN1CCC(NCC(C)(C)CN(C)C)CC1` [CBK261934], 89.3%.
In the case of `CCCN1CCC(N(C)CCN(CC)CC)CC1` [CBK261935], the viability at 28.5 h, 10 µM was found to be 104%.
For `FC(F)(F)c1ccc2c(c1)N(CCCN1CCN(C34CC5CC(CC(C5)C3)C4)CC1)c1ccccc1S2` [CBK261938] the value was 102%; for `O=C(O)CCCCCNS(=O)(=O)c1ccc(Cl)cc1` [CBK261940], 81.4%; for `CC1(C)CC(O[Si](C)(C)OC2CC(C)(C)NC(C)(C)C2)CC(C)(C)N1` [CBK261942], 99.3%.
In the case of `COc1ccc(C(=O)Nc2ccc3oc(-c4cccc(C)c4)nc3c2)cc1Br` [CBK261944] it was 100%; in that of `Cc1cc(Cl)ccc1NC(=O)CCC(=O)N/N=C/c1cccnc1` [CBK261945], 100%.
On to `C/C(=N\NC(=O)CCC(=O)Nc1ccccc1C)c1ccc(O)cc1O` [CBK261946], for which the viability at 28.5 h, 10 µM stood at 94.2%.
For `CCN(CC)Cc1c(O)ccc2occ(C(=O)c3cc(OC)ccc3OC)c12` [CBK261949] the value was 97%; for `CC1(C)CC(=NNC(=O)CCc2cc(C(C)(C)C)c(O)c(C(C)(C)C)c2)CC(C)(C)N1` [CBK261952], 108%; for `C(#Cc1ccc(-c2nc(-c3ccc(Sc4ccccc4)cc3)c(-c3ccc(Sc4ccccc4)cc3)[nH]2)cc1)c1ccccc1` [CBK261954], 95.3%.
As for `O=C(N/N=C/c1cccc(Oc2ccccc2)c1)c1ccncc1` [CBK261955], the viability at 28.5 h, 10 µM was 95.6%.
In the case of `CC1(C)CC(NC(=O)CN2CCCCC2)CC(C)(C)N1` [CBK261956] it was 92.4%.
In the case of `CN(C)Cc1c(O)ccc2occ(C(=O)c3cccs3)c12` [CBK261959C] it was 103%.
For `O=C(N/N=C\C=C\c1ccco1)c1ccc([N+](=O)[O-])cc1` [CBK261961] the value was 102%.
As for `c1ccc(-c2nc3ccc(Oc4ccc5nc(-c6ccccn6)c(-c6ccccn6)nc5c4)cc3nc2-c2ccccn2)nc1` [CBK261964], the viability at 28.5 h, 10 µM worked out at 99.6%.
Regarding `CN(C)Cc1c(O)ccc2occ(C(=O)c3ccccc3)c12` [CBK261965], the viability at 28.5 h, 10 µM came out at 94%.
For `Clc1ccc(-c2ccc(/C=N/c3ccc4oc(-c5ccccc5)nc4c3)o2)cc1` [CBK261969], the viability at 28.5 h, 10 µM was determined as 102%.
In the case of `C/C(=N\NC(=O)CCC(=O)Nc1ccc(I)cc1)c1ccc(O)cc1O` [CBK261971] it was 89.9%.
In the case of `Cc1ccc(S(=O)(=O)N=C2NCN(C)CN2)cc1` [CBK261972] it was 94.3%; in that of `O=C(O)CC(Cc1ccc(Cl)cc1)C(=O)Nc1ccc([N+](=O)[O-])cc1` (stereo not shown) [CBK261973], 89.7%.
For the molecule `Cc1cc(Cl)ccc1NC(=O)CCC(=O)N/N=C/c1ccc(O)cc1` [CBK261974], the viability at 28.5 h, 10 µM came out at 89.6%.
For `c1ccc(-c2nc3ccc(Cc4ccc5nc(-c6ccccn6)c(-c6ccccn6)nc5c4)cc3nc2-c2ccccn2)nc1` [CBK261975] the value was 101%; for `N/N=C1\C2CN3CCN(C2)CC1(Cc1ccccc1)C3` [CBK261977], 91.8%; for `CN(Cc1cc(C(C)(C)C)c(O)c(C(C)(C)C)c1)Cc1cc(C(C)(C)C)c(O)c(C(C)(C)C)c1` [CBK261980], 97%.
In the case of `COc1ccc(/C=N/NS(C)(=O)=O)cc1` [CBK261981] it was 108%; in that of `COc1ccc(/C=N/Nc2ccc([N+](=O)[O-])cc2)c(C(=O)O)c1OC` [CBK261984], 90.5%; in that of `CC1(C)CC(N2CN(C3CC(C)(C)NC(C)(C)C3)CN(C3CC(C)(C)NC(C)(C)C3)C2)CC(C)(C)N1` [CBK261985], 90.8%.
As for `O=C(CNC(=O)c1ccc2c(c1)OCCO2)N/N=C/c1cccs1` [CBK261987], the viability at 28.5 h, 10 µM is 86.5%.
For `Nc1nonc1-n1nnc(C(=O)N/N=C/c2ccc([N+](=O)[O-])cc2)c1-c1ccccc1` [CBK261992] the value was 86.4%; for `CN(C)CCCn1cccc1C=O` [CBK261993G], 90.3%; for `Oc1c(CN2CCN(Cc3ccc4cccnc4c3O)CC2)ccc2cccnc12` [CBK261994], 86.1%.
With `CCCNc1nc(Cl)nc(NCc2cccnc2)n1` [CBK261995], the viability at 28.5 h, 10 µM turned out to be 89%.
In the case of `O=C(O)CC(NC=C1C(=O)CCCC1=O)C(=O)O` (stereo not shown) [CBK261997] it was 85.2%.
As for `CC(C)(C)c1cc(CCCOC(=O)CNC2CCCCC2)cc(C(C)(C)C)c1O` [CBK261998], the viability at 28.5 h, 10 µM is 89.4%.
For `COc1ccc(OCCOCCN2CCOCC2)cc1` [CBK261999], the viability at 28.5 h, 10 µM was 91.3%.
For `COc1cc(NC(=O)C(c2ccccc2)c2ccccc2)c(C(=O)O)cc1OC` [CBK262001] the value was 90.1%; for `O=C(CC1=C(O)C(=O)c2ccccc2C1=O)c1ccccc1` [CBK262002], 80.5%; for `Oc1ccc2ccccc2c1/C=N/Nc1nnc(-c2ccccc2)c(-c2ccccc2)n1` [CBK262005], 91.9%.
`Cc1ccccc1C(=O)Nc1cc(NC(=O)c2ccccc2C)cc(C(=O)O)c1` [CBK262007]: the viability at 28.5 h, 10 µM was 109%.
In the case of `CC1(C)CC(N2CNC(=N)N(C#N)C2)CC(C)(C)N1` [CBK262008] it was 90.7%; in that of `Oc1ccc(/N=N/c2cccc(Br)c2)cc1/C=N/c1ccc(-c2nc3ncccc3o2)cc1` [CBK262009], 85.9%.
Consider `Oc1ccc(/C=N/Nc2nnc(-c3ccccc3)c(-c3ccccc3)n2)cc1` [CBK262011], for which the viability at 28.5 h, 10 µM turned out to be 112%.
Regarding `Cc1ccccc1NC(=O)CCC(=O)N/N=C/c1ccncc1` [CBK262016], the viability at 28.5 h, 10 µM stood at 101%.
For `O=C(O)CC(Cc1ccc(Cl)cc1)C(=O)Nc1ccccc1I` (stereo not shown) [CBK262021] the value was 90%; for `O=C(N/N=C/c1c(Cl)cccc1Cl)c1cc(Br)ccc1O` [CBK262022], 95.1%.
For `Cc1ccc([N+](=O)[O-])cc1NC1OCC(O)C(O)C1O` (stereo not shown) [CBK262026] the value was 98.8%; for `COc1cc(/C=N/NC(=O)Cc2nnc(N)s2)cc(OC)c1OC` [CBK262027], 109%.
For `Oc1ccc2ccccc2c1/C=N/Nc1nnn[nH]1` [CBK262028] the value was 106%.
Consider `Cc1ccc([N+](=O)[O-])cc1NC1OC(C(O)CO)C(O)C1O` (stereo not shown) [CBK262031], for which the viability at 28.5 h, 10 µM came to 98%.
In the case of `O=C(O)c1ccc(/C=N/c2ccc(S(=O)(=O)c3ccc(/N=C/c4ccc(C(=O)O)cc4)cc3)cc2)cc1` [CBK262038] it was 92.4%; in that of `CN(CCN(C)/N=C/c1c2ccccc2cc2ccccc12)/N=C/c1c2ccccc2cc2ccccc12` [CBK262039], 94.8%.
Turning to `CC(CNC(=O)c1cncc(Br)c1)NC(=O)c1cncc(Br)c1` (stereo not shown) [CBK262040], the viability at 28.5 h, 10 µM was determined as 91.6%.
Take `Oc1c(Br)cc(Cl)cc1/C=N/Nc1nnc2c(n1)[nH]c1ccccc12` [CBK262041]: the viability at 28.5 h, 10 µM is 114%.
Regarding `OCC(O)/C=N/Nc1nc(Nc2ccccc2)nc(N2CCCCC2)n1` (stereo not shown) [CBK262042], the viability at 28.5 h, 10 µM amounted to 107%.
For `CN(C)CCCNC=C1C(=O)CC(C)(C)CC1=O` [CBK262043] the value was 92.2%; for `Cc1n[nH]c(C)c1Sc1ccccc1/N=C/c1ccc([N+](=O)[O-])cc1` [CBK262045], 87.4%; for `O=S1(=O)CC(OS(=O)(=O)c2ccc(Cl)cc2)C(OS(=O)(=O)c2ccc(Cl)cc2)C1` (stereo not shown) [CBK262049], 104%.
As for `Oc1ccccc1CN1CCN(Cc2ccccc2O)C1c1ccccc1Br` [CBK262050], the viability at 28.5 h, 10 µM was 98.1%.
On to `O=C(CO/N=C\c1cccc([N+](=O)[O-])c1)Nc1ccccc1C(=O)O` [CBK262051], for which the viability at 28.5 h, 10 µM was 91.7%.
Turning to `Cc1[nH]c(=O)[nH]c(=O)c1N(CCO)CCO` [CBK262052], the viability at 28.5 h, 10 µM worked out at 94.8%.
In the case of `Cc1cc([N+](=O)[O-])ccc1/N=C\c1ccc(C(=O)O)cc1` [CBK262058] it was 95.4%.
